{"source": "paper PMC8838415", "about": "“Discovery of Novel Pleuromutilin Derivatives as Potent Antibacterial Agents for the Treatment of MRSA Infection” (Molecules, 2022)", "key": {"[1]": {"target": "CYP3A4 (Homo sapiens, UniProt P08684)", "sequence (P08684 whole entry)": "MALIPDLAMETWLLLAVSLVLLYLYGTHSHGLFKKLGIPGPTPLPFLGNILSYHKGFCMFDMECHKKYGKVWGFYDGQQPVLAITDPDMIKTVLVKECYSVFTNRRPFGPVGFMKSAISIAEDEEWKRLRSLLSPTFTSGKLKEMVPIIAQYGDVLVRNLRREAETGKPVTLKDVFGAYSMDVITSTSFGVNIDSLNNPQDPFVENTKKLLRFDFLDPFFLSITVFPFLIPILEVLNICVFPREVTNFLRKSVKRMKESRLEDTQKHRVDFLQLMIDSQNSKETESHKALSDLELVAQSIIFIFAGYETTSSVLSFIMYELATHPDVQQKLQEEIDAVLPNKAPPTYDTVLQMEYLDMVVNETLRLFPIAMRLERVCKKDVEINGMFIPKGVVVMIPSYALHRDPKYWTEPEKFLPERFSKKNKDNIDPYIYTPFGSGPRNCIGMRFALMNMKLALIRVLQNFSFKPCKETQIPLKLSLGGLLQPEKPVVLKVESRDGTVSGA", "test": "Human liver microsomal CYP3A4 enzyme inhibition", "assay_type": "in vitro ADME", "set-up": "from tissue; host or cells: human liver microsomes", "conditions": "human liver microsomes, testosterone substrate", "procedure": "The inhibitory effect of compound 9 on CYP3A4 was evaluated according to previous work. The experiments were performed in 96-well plates with a final incubation volume of 100 µL per well. A total of 20 µL of compound 9 was added to 96-well plates, with final concentrations of 0.25, 0.5, 1, 5, 10, and 50 µM. Then, 40 µL of human liver microsomes (final concentration of human liver microsomes was 0.2 mg/mL) and 20 µL of probe substrates (final concentration of testosterone was 20 μmol/L) in 0.1 M Tris (pH = 7.4) were added. After preincubation at 37 °C for 5 min, the reaction started with the addition of 20 µL of NADPH (final concentration is 1 mmol/L). Then, the plate was incubated at 37 °C for 5 min, and then 100 μL acetonitrile (with loratadine used as an internal standard) was added to terminate the reaction. After the reactions were completed, the plates were centrifuged and the supernatants were analyzed for the loratadine and probe substrates testosterone by LC-MS/MS."}, "[2]": {"system": "50S ribosome", "test": "SPR interaction and affinity analysis", "assay_type": "binding, S. aureus ATCC 43300", "conditions": "4 °C", "procedure,_shortened": "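50S subunit purified from S. aureus ATCC 43300 by sucrose cushion/gradient; compounds (100 μM in DMSO) photo-cross-linked on sensor chip. Ribosome flowed at 200–3200 nM in PBST pH 7.4, 4 °C, 600 s association, 360 s dissociation. KD = Kd/Ka from 1:1 Langmuir fit with mass transfer.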"}, "[3]": {"system": "MRSA ATCC 43300", "test": "Constant concentration time-kill curves", "assay_type": "cell-based, Staphylococcus aureus", "conditions": "2× MIC, in 9 h", "procedure": "The time-kill curve experiments of compound 8 and compound 9 were performed according to a previous report in triplicate. The logarithmic phase of MRSA 43300 was diluted to about 10^6 CFU/mL with MH broth. […] All samples were shaken at 37 °C. Samples (100 μL) were taken at 0, 3, 6, 9 and 24 h from the mixtures. Each sample was diluted decuple continuously with sterile saline. Then, 20 μL of the diluted sample was plated on the sterile MH agar plate and incubated for 22–26 h at 37 °C. The total bacteria on the plates were counted as CFU/mL to calculate the bacterial colonies. The time-kill curve was constructed by scheming log10 CFU/mL of bacteria counts versus time."}}}
{"compound": "C=C[C@]1(C)C[C@@H](OC(=O)CNc2ccc(F)cc2)[C@]2(C)[C@H](C)CC[C@]3(CCC(=O)[C@H]32)[C@@H](C)[C@@H]1O", "note": "[Compound 9, 22-(4-Fluoroanilineyl)-22-deoxypleuromutilin]", "values": [{"measurement": "IC50", "setting": "[1]", "value": 6.19, "unit": "µM"}, {"measurement": "IC50", "setting": "[1]; converted with MW", "value": 6.19, "unit": "µM"}, {"measurement": "Avg ka", "setting": "[2]; 1:1 Langmuir binding", "value": 417, "unit": "M⁻¹ s⁻¹"}, {"measurement": "Avg kd", "setting": "[2]; 1:1 Langmuir binding", "value": "7.39e-06", "unit": "s⁻¹"}, {"measurement": "Kd", "setting": "[2]; KD = Kd/Ka", "value": 0.0177, "unit": "µM"}, {"measurement": "MRSA killed (time-kill)", "setting": "[3]", "value": 99.9, "unit": "%"}]}
